Assay results from patent US9040501B2, “Compositions and methods for treating cancer” (Eisai Inc., priority 2009, dated 2015).
Where two headings read alike, the source gives them in different places.

Experiments:
CDA = CDA (Homo sapiens (Human), UniProt P32320); conditions: deamination by CDA; Chabot et al. 1983, Bouffard et al. 1993; cited from earlier work
CDA from human liver = CDA from human liver (Homo sapiens (Human), UniProt P32320); conditions: Wentworth and Wolfenden 1975; cited from earlier work
Sequence of CDA from human liver (P32320 whole entry): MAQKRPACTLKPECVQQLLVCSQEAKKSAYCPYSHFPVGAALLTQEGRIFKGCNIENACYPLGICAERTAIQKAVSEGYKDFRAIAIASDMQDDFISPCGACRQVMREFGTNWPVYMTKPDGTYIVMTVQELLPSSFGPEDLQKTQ

[1] = tested on: A2780 human ovarian cancer xenograft; experiment: In vivo efficacy study in A2780 human ovarian cancer xenograft model; design: species or system female nude mice; conditions: qdx5 for two weeks
Procedure: Animals were dosed daily from Monday to Friday for two weeks.
Female nude mice (NU/NU, strain code 088, 6 weeks old, Charles River Laboratory) were implanted subcutaneously with 5×10^6 A2780 cancer cells per mouse. On day 13 when the tumors were approximately 150 mm^3, treatment started as described in Table 9.
Tumor volume and regressions were followed over time. Tumor volume was calculated by (length×width^2)/2. Note that a complete regression was defined as no measurable tumor for at least 3 consecutive measurements; while a partial regression was defined as tumor shrinkage to equal or less than 50% of original tumor volume for 3 consecutive measurements. Tumor growth delay (TGD) was defined as the median number of days for the control and treatment groups to grow to 342.14 mm^3. The average tumor volume on the first day of treatment (day 13) is 171.07 mm^3.

cytidine deaminase (CDA) = cytidine deaminase (CDA) (Homo sapiens (Human), UniProt P32320); experiment: Effect of ER-876437 on the half-life of gemcitabine in the presence of CDA in Tris-HCl buffer at 37° C.; assay type: biochemical; design: half-life: dose or concentration left out as unconfirmed; conditions: for half-life: cytidine deaminase (CDA) in Tris-HCl buffer, read-out: Estimated T1/2 of gemcitabine; for reduction in gemcitabine concentration: gemcitabine alone, absence of CDA, Tris-HCl buffer at 37° C., 10 hours
Sequence of cytidine deaminase (CDA) (P32320 whole entry): as above
Procedure: This Example employed a Phenomenex Luna C18(2) HPLC column (100 Å 4.6×250 mm 5 μm). The solvent delivery system employed an HPLC quaternary pump, low pressure mixing. An autosampler having a variable loop, 0.1 to 100 μL range and temperature controlled thermostat was used. The UV detector can employ a dual wavelength detector, a diode array detector, a variable wavelength detector or equivalent, and can be recorded using chromatographic software (e.g., Waters Empower 2 Build 2154, Agilent ChemStation software version A.09.03 or higher for HPLC or equivalent). The analytical balance employed was capable of weighing ±0.1 mg. Degassed HPLC grade water and degassed HPLC grade acetonitrile were used as solvents for the mobile phases.
Gemcitabine Standard Control: 0.2 mM gemcitabine control was prepared by weighing […] of gemcitabine in a 10 mL volumetric flask. […] Solution was labeled as gemcitabine stock solution.

Sequence of CDA (P32320 whole entry): as above

| SMILES | Km (CDA) [µM] | Km (CDA from human liver) [µM] | regressions or tumor free survivors at day 41 ([1]; gemcitabine 1 mg/kg PO alone or ER-876437 10 mg/kg PO alone) | effect on tumor growth (FIG. 3) ([1]; gemcitabine 1 mg/kg PO and/or ER-876437 10 mg/kg PO (30 minutes prior)) | TGD (tumor growth delay) ([1]; gemcitabine 1 mg/kg PO and/or ER-876437 10 mg/kg PO (30 minutes prior), delay vs vehicle to reach 342.14 mm^3) [days] | Estimated T1/2 of gemcitabine (cytidine deaminase (CDA); Gemcitabine with CDA in Tris-HCl buffer at 37° C.) [min] | half-life (cytidine deaminase (CDA); pH 7.4, Gemcitabine with CDA and ER-876437 in Tris-HCl buffer at 37° C.) [min] | half-life (cytidine deaminase (CDA); pH 7.4, Gemcitabine with CDA in Tris-HCl buffer at 37° C.) [min] | reduction in gemcitabine concentration (cytidine deaminase (CDA)) | reduction in gemcitabine concentration (cytidine deaminase (CDA); listed as Gemcitabine) | concentration of gemcitabine (cytidine deaminase (CDA); presence of CDA, within 1 hour) [% control] |
| --- | --- | --- | --- | --- | --- | --- | --- | --- | --- | --- | --- |
| Nc1ncn([C@@H]2O[C@H](CO)[C@@H](O)[C@H]2O)c(=O)n1 [5-azacytidine, 4-Amino-1-(β-D-ribofuranosyl)-1,3,5-triazin-2(1H)-one] | 216 ± 51 | 58 |  |  |  |  |  |  |  |  |  |
| Nc1cnn([C@@H]2O[C@H](CO)[C@@H](O)[C@H]2O)c(=O)n1 [6-azacytidine] |  | 4200 |  |  |  |  |  |  |  |  |  |
| Nc1ccn([C@@H]2O[C@H](CO)[C@@H](O)C2(F)F)c(=O)n1 [gemcitabine, 2′-deoxy-2′,2′-difluorocytidine] | 95.7 ± 8.4 |  | no regressions or tumor free survivors | limited efficacy | 2 | <35 | > 780 | < 35 | no reduction | did not show any degradation | ~0 |
